Measured values published in patent US20090214514A1, “GUS3 NEUROPEPTIDES FOR REGULATING HYPOTHALAMIC FUNCTION” (priority 2004, published 2009).
No end group written: not given here.

Assay: Standard 24-hour thirst assay: acute effect of icv GUS3 peptides on food and water intake
Assay type: in vivo, Sprague Dawley rats
Conditions: rats thirsted 24 h, not food deprived, single ICV injection in 5 uL vehicle 15 min before reintroduction of water, intake recorded at 30 min, 60 min, 2 h, 3 h; for effect on food intake: vs vehicle (FIG. 8A); for effect on water intake: vs vehicle (FIG. 8B)
Experimental: Animals are injected with the substances after a 24 hr thirst period and food and water intake is monitored at 30 minutes, 60 minutes, 2 hours, 3 hours, and 24 hours.
Thirty-six regular Sprague Dawley rats (Charles River, Germany) weighing approximately 250 gram at the start of the experiment were used for these experiments. All animals were kept under a 12/12 L/D cycle (lights on at 0300) and in temperature and humidity controlled rooms. The animals were allowed a 5 day acclimatisation period after arrival to the test facility in order to reduce stress effects.
All experiments are conducted in accordance with internationally accepted principles for the care and use of laboratory animals and are approved by the Danish committee for animal research. Under Hypnorm Dormicum (Nomeco A/S, Copenhagen Denmark) anesthesia all animals were stereotaxically equipped with a stainless steel cannula aimed at the lateral ventricle (1 mm caudal and 1.5 mm lateral from bregma and 4 mm depth). During a 7 day recovery period, the rats were handled daily in order to accustom them to the experimental procedure.
The following peptides were ordered from Schafer-N, Copenhagen (see also example 2):
The animals were divided into 4 weight-matched groups prior to the test: • Group 4 Vehicle control (5 μL PBS) • Group 3 GUS3 C (10 ug) icv in 5 uL vehicle • Group 2 GUS3 M (1 ug) icv in 5 uL vehicle • Group 1 GUS3 N (10 ug) icv in 5 uL vehicle
The rats were thirsted but not food deprived twenty-four hours before the experiment. Fifteen minutes prior to reintroduction of water (time=0) the animals received an ICV injection of […] of one of the 3 peptides dissolved in 5 μL vehicle or of vehicle alone. Water and food intake was recorded at time=30 minutes, 60 minutes, 2 hour, 3 hours and 24 hours.
The data are evaluated by relevant statistical analyses (Statview software). Results are presented as mean±SEM (standard error of the mean). Statistical evaluation of the data is carried out using one-way analysis of variance (ANOVA) with appropriate post-hoc analysis between control and treatment groups in cases where statistical significance is established (p<0.05; Scheffe or Bonferoni).

Substance	effect on food intake	effect on water intake
TIARQTARCAC (listed as Homo sapiens) [GUS3 M]	did not seem to affect	did not seem to affect
ac-QFLKEGQLAAGTCEIVTLDRDSSQP (Ac-QFLKEGQLAAGTCEIVTLDRDSSQP; listed as Homo sapiens) [GUS3 N]	did not seem to affect	did not seem to affect
